Data published in PubChem BioAssay AID248 (DTP/NCI, 2004).
Several values for one entry are separate records, joined by “and”; a condition that tells them apart may be missing. Equal entries are not always repeated. Inconclusive results and toxic doses are left out. Rule as the data show it: active = T/C of 150% or more; inactive = T/C below 125%. Square brackets hold non-standard residues; d marks the D form. Peptide text beside a SMILES is read from it. ξ: configuration not given here. ξE = NC(CCC(=O)O)C(=O)O

Tested on: L1210 leukemia ip in BDF1 mice, survival T/C
Assay: NCI In Vivo Anticancer Drug Screen. Data for tumor model L1210 Leukemia (intraperitoneal) in B6D2F1 (BDF1) mice
Details: endpoint: mean survival time, higher = longer survival
Outline: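 Mice bearing the transplanted tumor received compound or vehicle. Survival of the treated group was divided by that of the vehicle-treated control group to give the ratio.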

[1] = dose: 100.0 mg/kg/injection, schedule: Q01DX001 (ip), vehicle: carboxymethylcellulose (CMC)
[2] = dose: 200.0 mg/kg/injection, schedule: Q01DX001 (ip), vehicle: carboxymethylcellulose (CMC)
[3] = dose: 400.0 mg/kg/injection, schedule: Q01DX001 (ip), vehicle: carboxymethylcellulose (CMC)
[4] = dose: 100.0 mg/kg/injection, schedule: Q01DX001 (ip), vehicle: saline with Tween-80
[5] = dose: 100.0 mg/kg/injection, schedule: Q04DX002 (ip), vehicle: saline
[6] = dose: 100.0 mg/kg/injection, schedule: Q01DX009 (ip), vehicle: saline
[7] = dose: 100.0 mg/kg/injection, schedule: Q01DX009 (ip), vehicle: saline with Tween-80
[8] = dose: 200.0 mg/kg/injection, schedule: Q01DX009 (ip), vehicle: saline with Tween-80
[9] = dose: 400.0 mg/kg/injection, schedule: Q01DX009 (ip), vehicle: saline with Tween-80
[10] = dose: 100.0 mg/kg/injection, schedule: Q04DX003 (ip), vehicle: saline
[11] = dose: 200.0 mg/kg/injection, schedule: Q04DX003 (ip), vehicle: saline
[12] = dose: 100.0 mg/kg/injection, schedule: Q01DX009 (ip), vehicle: Klucel (hydroxypropylcellulose) (HPC)
[13] = dose: 200.0 mg/kg/injection, schedule: Q01DX009 (ip), vehicle: Klucel (hydroxypropylcellulose) (HPC)
[14] = dose: 400.0 mg/kg/injection, schedule: Q01DX009 (ip), vehicle: Klucel (hydroxypropylcellulose) (HPC)
[15] = dose: 50.0 mg/kg/injection, schedule: Q01DX009 (ip), vehicle: Klucel (hydroxypropylcellulose) (HPC)
[16] = dose: 100.0 mg/kg/injection, schedule: Q04DX003 (ip), vehicle: Klucel (hydroxypropylcellulose) (HPC)

Measured: T/C

C/C=C/c1nc2c(c(=O)n(C)c(=O)n2C)n1C
inactive: dose: 50.0 mg/kg/injection, schedule: Q01DX001 (ip), vehicle: carboxymethylcellulose (CMC) 106 % of control | [1] 95 % of control | [2] 103 % of control | [3] 97 % of control

Cc1nc(N)[nH]c(=O)c1CCCNC(=O)c1ccc(C(=O)O)cc1
inactive: dose: 25.0 mg/kg/injection, schedule: Q01DX001 (ip), vehicle: saline with Tween-80 90 % of control | dose: 50.0 mg/kg/injection, schedule: Q01DX001 (ip), vehicle: saline with Tween-80 97 % of control | [4] 93 % of control

CNCCCNCC(Cc1ccccc1)c1ccccc1 (stereo not drawn)
inactive: [5] 86 % of control

O=C(Nc1ccccc1F)Oc1cccc(C(F)(F)F)c1
inactive: dose: 25.0 mg/kg/injection, schedule: Q01DX009 (ip), vehicle: saline 103 % of control | dose: 50.0 mg/kg/injection, schedule: Q01DX009 (ip), vehicle: saline 110 % of control | [6] 103 % of control

Cc1ccc(S(=O)(=O)N2C(=O)CCC2C(=O)O)cc1 (stereo not drawn)
inactive: [4] 100 % of control | [7] 98 % of control | dose: 200.0 mg/kg/injection, schedule: Q01DX001 (ip), vehicle: saline with Tween-80 96 % of control | [8] 96 % of control | dose: 400.0 mg/kg/injection, schedule: Q01DX001 (ip), vehicle: saline with Tween-80 97 % of control | [9] 102 % of control

O=C(O)C1C=CCC(C(=O)O)C1 (stereo not drawn)
inactive: [10] 98 % of control | [11] 108 % of control | dose: 400.0 mg/kg/injection, schedule: Q04DX003 (ip), vehicle: saline 95 % of control

COC1OCC(OCc2ccccc2)C(OCc2ccccc2)C1OCc1ccccc1 (stereo not drawn)
inactive: [1] 118 % of control | [2] 98 % of control | [3] 96 % of control

O=C(N/N=C/c1ccc(O)cc1)c1ccccc1NC(=O)C1CC1
inactive: [12] 104 % of control | [13] 89 % of control | [14] 93 % of control

CCCC/C(COC)=N\N=C(\CCOC)COC
inactive: [2] 94 % of control | [3] 94 % of control

CC(=O)CC(=O)NC(C)CCc1ccccc1 (stereo not drawn)
inactive: [7] 92 % of control | dose: 100.0 mg/kg/injection, schedule: Q04DX003 (ip), vehicle: saline with Tween-80 98 % of control | [8] 92 % of control | dose: 200.0 mg/kg/injection, schedule: Q04DX003 (ip), vehicle: saline with Tween-80 102 % of control | [9] 104 % of control | dose: 400.0 mg/kg/injection, schedule: Q04DX003 (ip), vehicle: saline with Tween-80 98 % of control

CCC(O)CC(=O)O (stereo not drawn) (tested in a mixture with another compound)
inactive: dose: 25.0 mg/kg/injection, schedule: Q04DX002 (ip), vehicle: Klucel (hydroxypropylcellulose) (HPC) 104 % of control | dose: 50.0 mg/kg/injection, schedule: Q04DX002 (ip), vehicle: Klucel (hydroxypropylcellulose) (HPC) 101 % of control | dose: 100.0 mg/kg/injection, schedule: Q04DX002 (ip), vehicle: Klucel (hydroxypropylcellulose) (HPC) 101 % of control

CCCC[n+]1ccc(C(N)=O)cc1
inactive: [10] 100 % of control | [11] 100 % of control

NCCCC(=O)NC(Cc1cnc[nH]1)C(=O)O (stereo not drawn)
inactive: dose: 100.0 mg/kg/injection, schedule: Q01DX001 (ip), vehicle: saline 95 % of control | dose: 200.0 mg/kg/injection, schedule: Q01DX001 (ip), vehicle: saline 97 % of control | dose: 400.0 mg/kg/injection, schedule: Q01DX001 (ip), vehicle: saline 92 % of control

Cc1ccc(NC(=O)OCCOc2cc(C)c(Cl)c(C)c2)c([N+](=O)[O-])c1
inactive: [15] 95 % of control | [12] 95 % of control | [16] 90 % of control | [13] 91 % of control | dose: 200.0 mg/kg/injection, schedule: Q04DX003 (ip), vehicle: Klucel (hydroxypropylcellulose) (HPC) 97 % of control | dose: 400.0 mg/kg/injection, schedule: Q04DX003 (ip), vehicle: Klucel (hydroxypropylcellulose) (HPC) 92 % of control

NCC(=O)NC(CCC(=O)O)C(=O)O (stereo not drawn) (H-Gly-[ξE]-OH)
inactive: dose: 50.0 mg/kg/injection, schedule: Q04DX002 (ip), vehicle: saline 89 % of control | [5] 104 % of control | dose: 200.0 mg/kg/injection, schedule: Q04DX002 (ip), vehicle: saline 93 % of control

CCCCCCCCN(C)N=Nc1ccccc1C(=O)O
inactive: dose: 12.5 mg/kg/injection, schedule: Q01DX009 (ip), vehicle: Klucel (hydroxypropylcellulose) (HPC) 109 % of control | dose: 12.5 mg/kg/injection, schedule: Q04DX003 (ip), vehicle: Klucel (hydroxypropylcellulose) (HPC) 102 % of control | dose: 25.0 mg/kg/injection, schedule: Q01DX009 (ip), vehicle: Klucel (hydroxypropylcellulose) (HPC) 106 % of control and 116 % of control | dose: 25.0 mg/kg/injection, schedule: Q04DX003 (ip), vehicle: Klucel (hydroxypropylcellulose) (HPC) 95 % of control | [15] 122 % of control | dose: 50.0 mg/kg/injection, schedule: Q04DX003 (ip), vehicle: Klucel (hydroxypropylcellulose) (HPC) 108 % of control | dose: 60.0 mg/kg/injection, schedule: Q01DX009 (ip), vehicle: Klucel (hydroxypropylcellulose) (HPC) 122 % of control | [16] 114 % of control | [13] 114 % of control | [14] 92 % of control

O=C(O)CCNCCO
inactive: [6] 98 % of control | dose: 200.0 mg/kg/injection, schedule: Q01DX009 (ip), vehicle: saline 98 % of control

CC(=O)OC1CCC(NC(N)=O)CC1 (stereo not drawn)
inactive: dose: 176.0 mg/kg/injection, schedule: Q01DX001 (ip), vehicle: other 102 % of control | dose: 264.0 mg/kg/injection, schedule: Q01DX001 (ip), vehicle: other 120 % of control | dose: 400.0 mg/kg/injection, schedule: Q01DX001 (ip), vehicle: other 97 % of control | dose: 600.0 mg/kg/injection, schedule: Q01DX001 (ip), vehicle: other 105 % of control

CC1CC([O-])=N/[N+]1=C/c1ccc(N(C)C)cc1 (stereo not drawn)
inactive: dose: 80.0 mg/kg/injection, schedule: Q01DX001 (ip), vehicle: saline with Tween-80 98 % of control | dose: 160.0 mg/kg/injection, schedule: Q01DX001 (ip), vehicle: saline with Tween-80 98 % of control | dose: 320.0 mg/kg/injection, schedule: Q01DX001 (ip), vehicle: saline with Tween-80 92 % of control

Cc1ccc(S(=O)(=O)C[n+]2cc(C)cc(C)c2)cc1
inactive: [10] 95 % of control | [11] 103 % of control

Cn1c(O)c(N=NC(N)=S)c2ccccc21
inactive: dose: 3.0 mg/kg/injection, schedule: Q01DX015 (ip), vehicle: carboxymethylcellulose (CMC) 96 % of control | dose: 6.0 mg/kg/injection, schedule: Q01DX015 (ip), vehicle: carboxymethylcellulose (CMC) 103 % of control | dose: 12.0 mg/kg/injection, schedule: Q01DX015 (ip), vehicle: carboxymethylcellulose (CMC) 97 % of control | dose: 25.0 mg/kg/injection, schedule: Q01DX015 (ip), vehicle: carboxymethylcellulose (CMC) 106 % of control | dose: 50.0 mg/kg/injection, schedule: Q01DX015 (ip), vehicle: carboxymethylcellulose (CMC) 103 % of control | dose: 62.5 mg/kg/injection, schedule: Q01DX015 (ip), vehicle: carboxymethylcellulose (CMC) 107 % of control
